The test concerns maize plants. The test is described as follows: Pot trial: single root-exudate metabolites applied to soil, dry biomass of maize plants at 6 weeks. It is filed as in vivo. As to conditions: for Dry biomass of maize plants at 6 weeks of growth, dry weight: metabolite 1 kg/ha in pot with 3 kg soil (assimilable P 0.5 ppm), triple superphosphate 100 P2O5 units/ha. The text has this: These metabolites were: gluconic acid, glyceric acid, lactic acid, glucose, threonic acid, fructose, aspartic acid, serine, glycerol, arabinose and glutamine. […] The effect of the metabolites was compared with a negative control (no treatment) and a positive control with a conventional phosphate fertiliser (triple superphosphate at a dose of 100 phosphorus fertiliser units —P2O5— per hectare). […] This level of assimilable phosphorus corresponds to 4.5 kg of P2O5 per hectare (considering 30 centimetres of arable soil and an average density of 1,300 kg/m^3, the mass per hectare would be approximately 3,900 tonnes).

Molecules are shown by their SMILES.

Take `O=C[C@@H](O)[C@H](O)[C@H](O)CO` [Arabinose]: the “Dry biomass of maize plants at 6 weeks of growth, dry weight” value (from here on “Dry biomass of maize plants”) was 1.26 g.

With `N[C@@H](CC(=O)O)C(=O)O` [Aspartic acid], the “Dry biomass of maize plants” value is 1.16 g.

With `O=C(CO)[C@@H](O)[C@H](O)[C@H](O)CO` [Fructose], the “Dry biomass of maize plants” value is reported as 1.38 g.

With `O=C(O)[C@H](O)[C@@H](O)[C@H](O)[C@H](O)CO` [Gluconic acid], the “Dry biomass of maize plants” value was 1.77 g.

Take `NC(=O)CC[C@H](N)C(=O)O` [Glutamine]: the “Dry biomass of maize plants” value amounted to 1.55 g.

Turning to `O=C(O)C(O)CO` (centres unmarked) [Glyceric acid, 2,3-dihydroxypropanoic acid], the “Dry biomass of maize plants” value is on record as 1.93 g. For the same compound, the “Growth enhancement in maize (in words)” value (1 kg/ha, pot trial) is recorded as “the most growth-enhancing metabolite in maize”.

Turning to `OCC(O)CO` [Glycerol], the “Dry biomass of maize plants” value is given as 1.30 g.

As for `CC(O)C(=O)O` (centres unmarked) [Lactic acid], the “Dry biomass of maize plants” value was determined as 1.73 g.

Consider `N[C@@H](CO)C(=O)O` [Serine], for which the “Dry biomass of maize plants” value worked out at 1.31 g.

`O=C(O)[C@@H](O)[C@H](O)CO` [Threonic acid]: the “Dry biomass of maize plants” value came to 1.14 g.
